Experimental data reported in patent publication US20050049201A1, “Detection and removal of lead using lead-binding proteins” (priority 2001, published 2005).

What was measured:
[1] = lead binding; Quintanilla-Vega 1995, Smith 1998; read-out: dissociation constant (Kd) of high affinity lead-binding region; cited from earlier work
[2] = Solid phase assay for lead: protein on nitrocellulose with chromogenic dye; details: combined results, various buffers, pH, salts and dyes
Experimental: A solid phase assay for the detection of lead was also developed using one or more synthetically produced lead-binding proteins. Both TB4 and ACBP and the various mutants that have been generated from them can be used in this assay. The experiment is performed by binding the protein to a solid surface support, such as nitrocellulose paper, cotton, glass microfibers, or polystyrene beads using, for example, methods described herein. Then the sample to be tested, such as saliva or blood, is placed onto the surface and allowed to react with the protein. After washing with buffer, or example a neutral non-chelating buffer to remove any unreacted material, the sample is treated with a ligand that can detect a lead-leading binding protein complex, for example, a ligand that can cause a color chance upon detecting a lead-protein complex. Examples of such ligands include, sodium sulfide and sodium rhodizonic acid. Furthermore, the concentration of the lead in the sample being tested may be determined by the intensity of the spot produced upon binding of the dye. […]
As a control, the assay was tested using solutions containing several different buffers, pH conditions, and salts for reaction with the sodium sulfide and sodium rhodizonic acid dyes used. […] The pH was determined empirically for rhodizonic acid over a range of pH 4 to pH 8. […]

thymosin beta-4 (MSDKPDMAEIEKFDKSKLKKTETQEKNPLPSKETIEQEKQAGES; listed as Homo sapiens) [TB4]
Kd [1]: ~1 nM | performance of solid phase lead detection assay [2]: works well under various conditions
